Experimental data from article PMC10149103 (Journal of medicinal chemistry, 2022).
Values joined by “and” are separate entries in the source; they are usually repeats but may differ in a detail not shown here. Identical values can stand only once. Counter-ions that a name gives are not always drawn.

How the values were obtained:
[1] = target: T1, DOR (Homo sapiens, UniProt P41143); experiment: biochemical; format: binding
[2] = target: MOR (Mus musculus, UniProt P42866); experiment: biochemical; format: biochemical; settings: for Emax: read-out: MOR [35S]GTPγS Binding % Emax of DAMGO
MOR, sequence (P42866 whole entry): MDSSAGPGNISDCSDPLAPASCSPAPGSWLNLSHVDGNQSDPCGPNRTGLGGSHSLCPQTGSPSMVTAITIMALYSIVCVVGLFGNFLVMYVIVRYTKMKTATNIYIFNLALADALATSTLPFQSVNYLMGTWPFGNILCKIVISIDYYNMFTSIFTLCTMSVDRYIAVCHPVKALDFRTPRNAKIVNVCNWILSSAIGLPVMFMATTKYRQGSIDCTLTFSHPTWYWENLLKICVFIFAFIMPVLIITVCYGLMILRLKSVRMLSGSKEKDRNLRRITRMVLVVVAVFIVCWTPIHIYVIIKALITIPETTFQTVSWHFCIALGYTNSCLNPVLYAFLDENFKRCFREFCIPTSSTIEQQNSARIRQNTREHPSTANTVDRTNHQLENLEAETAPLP

[3] = target: T2, KOR (Mus musculus, UniProt P33534); format: binding
T2 sequence (P33534 whole entry): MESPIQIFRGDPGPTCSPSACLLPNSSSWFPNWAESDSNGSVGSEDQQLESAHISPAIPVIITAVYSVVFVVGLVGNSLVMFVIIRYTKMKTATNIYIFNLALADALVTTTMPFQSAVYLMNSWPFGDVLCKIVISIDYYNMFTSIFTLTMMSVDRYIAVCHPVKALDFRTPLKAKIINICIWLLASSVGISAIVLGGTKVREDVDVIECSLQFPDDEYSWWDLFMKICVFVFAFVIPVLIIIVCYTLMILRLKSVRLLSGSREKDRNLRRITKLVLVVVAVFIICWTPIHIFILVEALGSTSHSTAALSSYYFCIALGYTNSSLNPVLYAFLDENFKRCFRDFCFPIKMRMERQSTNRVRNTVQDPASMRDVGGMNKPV

[4] = target: T1, DOR; experiment: biochemical; settings: read-out: DOR [35S]GTPγS Binding % Emax of SNC80
[5] = target: T2, KOR; experiment: biochemical; settings: read-out: KOR [35S]GTPγS Binding % Emax of U50,488H

T1 sequence (P41143 whole entry): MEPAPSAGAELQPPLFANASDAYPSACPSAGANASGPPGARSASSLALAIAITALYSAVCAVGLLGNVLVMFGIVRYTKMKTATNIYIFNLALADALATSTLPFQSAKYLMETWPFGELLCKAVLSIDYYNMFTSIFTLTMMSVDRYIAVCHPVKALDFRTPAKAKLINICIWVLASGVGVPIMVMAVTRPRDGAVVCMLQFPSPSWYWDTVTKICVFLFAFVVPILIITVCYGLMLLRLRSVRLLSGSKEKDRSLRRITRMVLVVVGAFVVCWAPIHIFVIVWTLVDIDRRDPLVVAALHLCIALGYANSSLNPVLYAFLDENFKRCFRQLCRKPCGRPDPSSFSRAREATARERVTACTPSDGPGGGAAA

SMILES | Ki [1] | Emax [2] | Selectivity κ/μ [3] | Selectivity δ/μ [1] | Emax [4] | Emax [5] | MOR [35S]GTPγS Binding % Emax of DAMGO [2]
O=C(Cc1cccs1)N[C@H]1CC[C@@]2(O)[C@H]3Cc4ccc(O)c5c4[C@@]2(CCN3CC2CC2)[C@H]1O5 [Compound 27, 17-Cyclopropylmethyl-3,14β-dihydroxy-4,5α-epoxy-6α-(2′-thienylacetamido)morphinan Hydrochloride] | 6.92 ± 1.63 nM |  |  |  |  |  | 
Cl.O=C(Cc1cc[nH]c1)N[C@H]1CC[C@@]2(O)[C@H]3Cc4ccc(O)c5c4[C@@]2(CCN3CC2CC2)[C@H]1O5 [Compound 9, 17-Cyclopropylmethyl-3, 14β-dihydroxy-4,5α-epoxy-6α-[(3′-pyrrolyl)acetamido]morphinan Hydrochloride] |  | 31.6 ± 2.87% | 5 | 4 |  |  | 
Cl.O=C(Cc1ccc[nH]1)N[C@H]1CC[C@@]2(O)[C@H]3Cc4ccc(O)c5c4[C@@]2(CCN3CC2CC2)[C@H]1O5 [Compound 3, 17-Cyclopropylmethyl-3,14β-dihydroxy-4,5α-epoxy-6a-[2′-(2′-pyrrolyl)acetamido]morphinan Hydrochloride] |  | 25 ± 2.61% | 6 | 8 |  |  | 
Cl.O=C(Cc1ccco1)N[C@H]1CC[C@@]2(O)[C@H]3Cc4ccc(O)c5c4[C@@]2(CCN3CC2CC2)[C@H]1O5 [Compound 15, 17-Cyclopropylmethyl-3, 14β-dihydroxy-4,5α-epoxy-6α-[(2′-furanyl)acetamido]morphinan Hydrochloride] |  | 22.6 ± 2.77% |  |  | 66.8 ± 4.24% | 63.3 ± 2.5% | 
Cl.O=C(N[C@H]1CC[C@@]2(O)[C@H]3Cc4ccc(O)c5c4[C@@]2(CCN3CC2CC2)[C@H]1O5)c1ccc[nH]1 [Compound 1, 17-Cyclopropylmethyl-3,14β-dihydroxy-4,5α-epoxy-6a-[(2′-pyrrolyl)carboxamido]morphinan Hydrochloride] |  |  |  |  | 50.9 ± 5.25% | 43.4 ± 1.36% | 12.11 ± 2.64%
Cl.O=C(Cc1ccco1)N[C@@H]1CC[C@@]2(O)[C@H]3Cc4ccc(O)c5c4[C@@]2(CCN3CC2CC2)[C@H]1O5 [Compound 16, 17-Cyclopropylmethyl-3,14β-dihydroxy-4,5α-epoxy-6β-[(2′-furanyl)acetamido]morphinan Hydrochloride] |  | 40 ± 0.9% |  |  | 31.2 ± 1.49% | 49.3 ± 1.07% | 
Cl.O=C(N[C@@H]1CC[C@@]2(O)[C@H]3Cc4ccc(O)c5c4[C@@]2(CCN3CC2CC2)[C@H]1O5)c1ccco1 [Compound 14, 17-Cyclopropylmethyl-3,14β-dihydroxy-4,5α-epoxy-6β-[(2′furanyl)carboxamido]morphinan Hydrochloride] |  | 24.2 ± 0.9% |  |  | 23.1 ± 0.97% | 67.2 ± 2.53% | 
Cl.O=C(N[C@H]1CC[C@@]2(O)[C@H]3Cc4ccc(O)c5c4[C@@]2(CCN3CC2CC2)[C@H]1O5)c1cc[nH]c1 [Compound 7, 17-Cyclopropylmethyl-3,14β-dihydroxy-4,5α-epoxy-6α-[(3′-pyrrolyl)carboxamido]morphinan Hydrochloride] |  |  | 2 | 31 |  |  | 16.65 ± 1.25%
Cl.O=C(CCc1ccc[nH]1)N[C@H]1CC[C@@]2(O)[C@H]3Cc4ccc(O)c5c4[C@@]2(CCN3CC2CC2)[C@H]1O5 [Compound 5, 17-Cyclopropylmethyl-3,14β-dihydroxy-4,5α-epoxy-6α[3′-(2′-pyrrolyl)propanamido]morphinan Hydrochloride] |  | 24 ± 3.59% |  |  |  |  | 
Cl.O=C(N[C@H]1CC[C@@]2(O)[C@H]3Cc4ccc(O)c5c4[C@@]2(CCN3CC2CC2)[C@H]1O5)c1ccoc1 [Compound 19, 17-Cyclopropylmethyl-3, 14β-dihydroxy-4,5α-epoxy-6α-[(3′-furanyl)carboxamido]morphinan Hydrochloride] |  |  |  |  |  |  | 18.14 ± 2.95%
Cl.O=C(Cc1ccoc1)N[C@H]1CC[C@@]2(O)[C@H]3Cc4ccc(O)c5c4[C@@]2(CCN3CC2CC2)[C@H]1O5 [Compound 21, 17-Cyclopropylmetyl-3, 14β-dihydroxy-4,5α-epoxy-6α-[(3′-furanyl)acetamido]morphinan Hydrochloride] |  |  | 15 | 9 |  |  | 14.95 ± 1.46%
Cl.O=C(CCc1ccc[nH]1)N[C@@H]1CC[C@@]2(O)[C@H]3Cc4ccc(O)c5c4[C@@]2(CCN3CC2CC2)[C@H]1O5 [Compound 6, 17-Cyclopropylmethyl-3,14β-dihydroxy-4,5α-epoxy-6β-[3′-(2′-pyrrolyl)propanamido]morphinan Hydrochloride] |  | 39.3 ± 3.16% | 2 | 70 |  |  | 
Cl.O=C(CCc1ccco1)N[C@H]1CC[C@@]2(O)[C@H]3Cc4ccc(O)c5c4[C@@]2(CCN3CC2CC2)[C@H]1O5 [Compound 17, 17-Cyclopropylmethyl-3, 14β-dihydroxy-4,5α-epoxy-6α-[(2′-furanyl)propanamido]morphinan Hydrochloride] |  |  |  | 4 |  |  | 
Cl.O=C(Cc1ccoc1)N[C@@H]1CC[C@@]2(O)[C@H]3Cc4ccc(O)c5c4[C@@]2(CCN3CC2CC2)[C@H]1O5 [Compound 22, 17-Cyclopropylmetyl-3,14β-dihydroxy-4,5α-epoxy-6β-[(3′-furanyl)acetamido]morphinan Hydrochloride] |  | 30.8 ± 2.07% | 16.7 and 17 | 332 |  |  | 
Cl.O=C(N[C@H]1CC[C@@]2(O)[C@H]3Cc4ccc(O)c5c4[C@@]2(CCN3CC2CC2)[C@H]1O5)c1ccco1 [Compound 13, 17-Cyclopropylmethyl-3,14β-dihydroxy-4,5α-epoxy-6α-[(2′furanyl)carboxamido]morphinan Hydrochloride] |  | 21.8 ± 5.19% | 3.83 and 4 | 62.83 and 63 |  |  | 
Cl.O=C(Cc1cc[nH]c1)N[C@@H]1CC[C@@]2(O)[C@H]3Cc4ccc(O)c5c4[C@@]2(CCN3CC2CC2)[C@H]1O5 [Compound 10, 17-Cyclopropylmethyl-3,14β-dihydroxy-4,5α-epoxy-6β-[(3′-pyrrolyl)acetamido]morphinan Hydrochloride] |  | 53.3 ± 0.95% |  |  |  |  | 
Cl.O=C(N[C@@H]1CC[C@@]2(O)[C@H]3Cc4ccc(O)c5c4[C@@]2(CCN3CC2CC2)[C@H]1O5)c1ccoc1 [Compound 20, 17-Cyclopropylmethyl-3,14β-dihydroxy-4,5α-epoxy-6β-[(3′-furanyl)carboxamido]morphinan Hydrochloride] |  | 25 ± 1.74% | 3 | 234 |  |  | 
Cl.O=C(Cc1ccc[nH]1)N[C@@H]1CC[C@@]2(O)[C@H]3Cc4ccc(O)c5c4[C@@]2(CCN3CC2CC2)[C@H]1O5 [Compound 4, 17-Cyclopropylmethyl-3,14β-dihydroxy-4,5α-epoxy-6β-[2′-(2′-pyrrolyl)acetamido]morphinan Hydrochloride] |  | 44.2 ± 1.52% | 8 | 152 |  |  | 
Cl.O=C(CCc1ccco1)N[C@@H]1CC[C@@]2(O)[C@H]3Cc4ccc(O)c5c4[C@@]2(CCN3CC2CC2)[C@H]1O5 [Compound 18, 17-Cyclopropylmethyl-3,14β-dihydroxy-4,5α-epoxy-6β-[(2′-furanyl)propanamido]morphinan Hydrochloride] |  |  | 2 | 118 |  |  | 
Cl.O=C(CCc1cc[nH]c1)N[C@@H]1CC[C@@]2(O)[C@H]3Cc4ccc(O)c5c4[C@@]2(CCN3CC2CC2)[C@H]1O5 [Compound 12] |  | 37.7 ± 0.87% | 7 | 164 |  |  | 
